Experimental data: ChEMBL document CHEMBL1137332, “Crystal structures of human adenosine kinase inhibitor complexes reveal two distinct binding modes” (J Med Chem, 2006)

Target: Adenosine kinase (Homo sapiens, UniProt P55263)
Test: Inhibition of human cytosolic AK

Sequence of Adenosine kinase (P55263 whole entry): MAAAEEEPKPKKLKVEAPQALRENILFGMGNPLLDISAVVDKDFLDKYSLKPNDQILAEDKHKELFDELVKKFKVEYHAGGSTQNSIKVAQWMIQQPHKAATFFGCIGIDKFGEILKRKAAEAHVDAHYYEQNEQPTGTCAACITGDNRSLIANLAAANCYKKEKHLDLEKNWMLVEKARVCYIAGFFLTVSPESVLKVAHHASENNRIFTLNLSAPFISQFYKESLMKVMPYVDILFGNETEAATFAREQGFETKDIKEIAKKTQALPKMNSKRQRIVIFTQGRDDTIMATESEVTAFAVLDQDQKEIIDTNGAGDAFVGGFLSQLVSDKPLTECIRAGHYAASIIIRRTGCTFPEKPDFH

Row | IC50 [nM] | SMILES
1 | 68 | CN(C)c1ccc(-c2c(N)ncnc2C#Cc2ccc(N3CCOCC3)nc2)cc1
2 | 20 | CN(C)c1ccc(C#Cc2ncnc(N)c2-c2ccccc2)cc1
3 | 120 | Nc1cc(C#Cc2ccc(N3CCOCC3)nc2)ncn1
4 | 9 | CN(C)c1ccc(C#Cc2ncnc(N)c2-c2ccc3c(c2)OCO3)cc1

Second part, the compound before the results:

Row | SMILES | IC50 [nM]
5 | Nc1ncnc(C#Cc2ccc(N3CCOCC3)nc2)c1CCCc1ccccc1 | 2.5
6 | Cc1nc(N)c(-c2ccccc2)c(C#Cc2ccc(N(C)C)cc2)n1 | > 1000
7 | Nc1ncnc(C#Cc2ccc(N3CCOCC3)nc2)c1Cc1ccccc1 | 40
